Measurements from ChEMBL document CHEMBL3734713, “4-Thiazolidinone derivatives as potent antimicrobial agents: microwave-assisted synthesis, biological evaluation and docking studies” (2015).
Converted amounts (≈) assume the structure as drawn.

Key:
[1] = system: Bacillus cereus; assay: Antibacterial activity against clinical isolates of Bacillus cereus assessed as growth inhibition after 24 hrs at 37 degC by iodonitrotetrazolium chloride staining based microdilution broth assay; type: functional
[2] = system: Micrococcus flavus; assay: Antibacterial activity against Micrococcus flavus ATCC 10240 assessed as growth inhibition after 24 hrs at 37 degC by iodonitrotetrazolium chloride staining based microdilution broth assay; type: functional; conditions: ATCC 10240, 24 h
[3] = system: Staphylococcus aureus; assay: Antibacterial activity against Staphylococcus aureus ATCC 6538 assessed as growth inhibition after 24 hrs at 37 degC by iodonitrotetrazolium chloride staining based microdilution broth assay; type: functional; conditions: ATCC 6538, 24 h
[4] = system: Listeria monocytogenes; assay: Antibacterial activity against Listeria monocytogenes NCTC 7973 assessed as growth inhibition after 24 hrs at 37 degC by iodonitrotetrazolium chloride staining based microdilution broth assay; type: functional; conditions: NCTC 7973, 24 h
[5] = system: Escherichia coli; assay: Antibacterial activity against Escherichia coli ATCC 35210 assessed as growth inhibition after 24 hrs at 37 degC by iodonitrotetrazolium chloride staining based microdilution broth assay; type: functional; conditions: ATCC 35210, 24 h
[6] = system: Enterobacter cloacae; assay: Antibacterial activity against human isolate of Enterobacter cloacae assessed as growth inhibition after 24 hrs at 37 degC by iodonitrotetrazolium chloride staining based microdilution broth assay; type: functional
[7] = system: Pseudomonas aeruginosa; assay: Antibacterial activity against Pseudomonas aeruginosa ATCC 27853 assessed as growth inhibition after 24 hrs at 37 degC by iodonitrotetrazolium chloride staining based microdilution broth assay; type: functional; conditions: ATCC 27853, 24 h
[8] = system: Salmonella typhimurium; assay: Antibacterial activity against Salmonella typhimurium ATCC 13311 assessed as growth inhibition after 24 hrs at 37 degC by iodonitrotetrazolium chloride staining based microdilution broth assay; type: functional, Salmonella enterica subsp. enterica serovar Typhimurium; conditions: Salmonella enterica, ATCC 13311, 24 h
[9] = system: Aspergillus fumigatus; assay: Antifungal activity against Aspergillus fumigatus ATCC 1022 assessed as growth inhibition after 72 hrs at 28 degC by serial dilution method; type: functional; conditions: for MIC: Aspergillus fumigatus, ATCC 1022, 72 h
[10] = system: Aspergillus versicolor; assay: Antifungal activity against Aspergillus versicolor ATCC 11730 assessed as growth inhibition after 72 hrs at 28 degC by serial dilution method; type: functional; conditions: for MIC: Aspergillus versicolor, ATCC 11730, 72 h
[11] = system: Aspergillus ochraceus; assay: Antifungal activity against Aspergillus ochraceus ATCC 12066 assessed as growth inhibition after 72 hrs at 28 degC by serial dilution method; type: functional; conditions: for MIC: Aspergillus ochraceus, ATCC 12066, 72 h
[12] = system: Aspergillus niger; assay: Antifungal activity against Aspergillus niger ATCC 6275 assessed as growth inhibition after 72 hrs at 28 degC by serial dilution method; type: functional; conditions: for MIC: Aspergillus niger, ATCC 6275, 72 h
[13] = system: Trichoderma viride; assay: Antifungal activity against Trichoderma viride IAM 5061 assessed as growth inhibition after 72 hrs at 28 degC by serial dilution method; type: functional; conditions: for MIC: Trichoderma viride, IAM 5061, 72 h
[14] = system: Talaromyces funiculosus; assay: Antifungal activity against Penicillium funiculosum ATCC 36839 assessed as growth inhibition after 72 hrs at 28 degC by serial dilution method; type: functional; conditions: for MIC: Talaromyces funiculosus, ATCC 36839, 72 h
[15] = system: Penicillium ochrochloron; assay: Antifungal activity against Penicillium ochrochloron ATCC 9112 assessed as growth inhibition after 72 hrs at 28 degC by serial dilution method; type: functional; conditions: for MIC: Penicillium ochrochloron, ATCC 9112, 72 h
[16] = system: Candida albicans; assay: Antifungal activity against Candida albicans ATCC 10231 assessed as growth inhibition after 72 hrs at 28 degC by serial dilution method; type: functional; conditions: for MIC: Candida albicans, ATCC 10231, 72 h
[17] = biological target: Human immunodeficiency virus type 1 reverse transcriptase (Human immunodeficiency virus 1) (UniProt Q72547); assay: Inhibition of HIV1 reverse transcriptase assessed as residual enzyme activity by measuring reduction in [3H]dTTP incorporation into poly(rA)-oligo(dT) at 4 uM incubated for 15 mins by scintillation counting method relative to control

Molecule `O=C1CSC(c2cccc(Cl)c2Cl)N1c1nc(C23CC4CC(CC(C4)C2)C3)cs1` (centres undefined) has an MBC [1] of 62.5 µM (≈ 29.1 µg/mL), an MIC [1] of 30.6 µM (≈ 14.2 µg/mL) and an MBC [2] of 62.5 µM (≈ 29.1 µg/mL). The MIC [2] was 30.6 µM (≈ 14.2 µg/mL), the MBC [3] was 15.3 µM (≈ 7.12 µg/mL) and the MIC [3] was 9 µM (≈ 4.19 µg/mL). For the same molecule, the MBC [4] was 125 µM (≈ 58.2 µg/mL), the MIC [4] was 62.5 µM (≈ 29.1 µg/mL) and the MBC [5] was 125 µM (≈ 58.2 µg/mL). It also gave an MIC [5] of 62.5 µM (≈ 29.1 µg/mL), an MBC [6] of 62.5 µM (≈ 29.1 µg/mL) and an MIC [6] of 30.6 µM (≈ 14.2 µg/mL). The MBC [7] was 62.5 µM (≈ 29.1 µg/mL), the MIC [7] was 15.3 µM (≈ 7.12 µg/mL) and the MBC [8] was 62.5 µM (≈ 29.1 µg/mL). It also gave an MIC [8] of 15.3 µM (≈ 7.12 µg/mL), an MFC99.5 [9] of 0.06 ×10⁻² umol/ml and an MIC [9] of 0.42 µM (≈ 0.195 µg/mL). For the same molecule, the MFC99.5 [10] was 0.06 ×10⁻² umol/ml, the MIC [10] was 0.21 µM (≈ 0.0977 µg/mL) and the MFC99.5 [11] was 0.06 ×10⁻² umol/ml. It also gave an MIC [11] of 0.42 µM (≈ 0.195 µg/mL), an MFC99.5 [12] of 0.06 ×10⁻² umol/ml and an MIC [12] of 0.21 µM (≈ 0.0977 µg/mL). For the same molecule, the MFC99.5 [13] was 0.06 ×10⁻² umol/ml, the MIC [13] was 0.21 µM (≈ 0.0977 µg/mL) and the MFC99.5 [14] was 0.06 ×10⁻² umol/ml. It also gave an MIC [14] of 0.42 µM (≈ 0.195 µg/mL), an MFC99.5 [15] of 0.06 ×10⁻² umol/ml and an MIC [15] of 0.21 µM (≈ 0.0977 µg/mL). For the same molecule, the MFC99.5 [16] was 1.075 ×10⁻² umol/ml, the MIC [16] was 5.3 µM (≈ 2.47 µg/mL) and the Activity [17] was 100%.
`O=C1CSC(c2c(Cl)cccc2Cl)N1c1nc(C23CC4CC(CC(C4)C2)C3)cs1` (centres undefined) showed an MBC [1] of 645 µM (≈ 300 µg/mL), an MIC [1] of 430 µM (≈ 200 µg/mL) and an MBC [2] of 430 µM (≈ 200 µg/mL). The MIC [2] was 215 µM (≈ 100 µg/mL), the MBC [3] was 645 µM (≈ 300 µg/mL) and the MIC [3] was 430 µM (≈ 200 µg/mL). The MBC [4] was 860 µM (≈ 400 µg/mL), the MIC [4] was 430 µM (≈ 200 µg/mL) and the MBC [5] was 430 µM (≈ 200 µg/mL). For the same molecule, the MIC [5] was 215 µM (≈ 100 µg/mL), the MBC [6] was 430 µM (≈ 200 µg/mL) and the MIC [6] was 430 µM (≈ 200 µg/mL). The MBC [7] was 645 µM (≈ 300 µg/mL), the MIC [7] was 430 µM (≈ 200 µg/mL) and the MBC [8] was 430 µM (≈ 200 µg/mL). The MIC [8] was 215 µM (≈ 100 µg/mL), the MFC99.5 [9] was 53.71 ×10⁻² umol/ml and the MIC [9] was 215 µM (≈ 100 µg/mL). For the same molecule, the MFC99.5 [10] was 32.22 ×10⁻² umol/ml, the MIC [10] was 215 µM (≈ 100 µg/mL) and the MFC99.5 [11] was 53.71 ×10⁻² umol/ml. It also gave an MIC [11] of 107 µM (≈ 50 µg/mL), an MFC99.5 [12] of 32.22 ×10⁻² umol/ml and an MIC [12] of 215 µM (≈ 100 µg/mL). For the same molecule, the MFC99.5 [13] was 21.48 ×10⁻² umol/ml, the MIC [13] was 215 µM (≈ 100 µg/mL) and the MFC99.5 [14] was 53.71 ×10⁻² umol/ml. It also gave an MIC [14] of 215 µM (≈ 100 µg/mL), an MFC99.5 [15] of 32.22 ×10⁻² umol/ml and an MIC [15] of 215 µM (≈ 100 µg/mL). It also gave an MFC99.5 [16] of 64.45 ×10⁻² umol/ml, an MIC [16] of 430 µM (≈ 200 µg/mL) and an Activity [17] of 52.5%.
Work on `O=C1CSC(c2cccc(Cl)c2)N1c1nc(C23CC4CC(CC(C4)C2)C3)cs1` (centres undefined) yielded an MBC [1] of 62.5 µM (≈ 26.9 µg/mL), an MIC [1] of 16.2 µM (≈ 7 µg/mL) and an MBC [2] of 125 µM (≈ 53.9 µg/mL). For the same molecule, the MIC [2] was 62.5 µM (≈ 26.9 µg/mL), the MBC [3] was 62.5 µM (≈ 26.9 µg/mL) and the MIC [3] was 30.6 µM (≈ 13.2 µg/mL). For the same molecule, the MBC [4] was 125 µM (≈ 53.9 µg/mL), the MIC [4] was 62.5 µM (≈ 26.9 µg/mL) and the MBC [5] was 125 µM (≈ 53.9 µg/mL). It also gave an MIC [5] of 62.5 µM (≈ 26.9 µg/mL), an MBC [6] of 125 µM (≈ 53.9 µg/mL) and an MIC [6] of 62.5 µM (≈ 26.9 µg/mL). For the same molecule, the MBC [7] was 125 µM (≈ 53.9 µg/mL), the MIC [7] was 62.5 µM (≈ 26.9 µg/mL) and the MBC [8] was 62.5 µM (≈ 26.9 µg/mL). The MIC [8] was 30.6 µM (≈ 13.2 µg/mL), the MFC99.5 [9] was 0.58 ×10⁻² umol/ml and the MIC [9] was 2.9 µM (≈ 1.25 µg/mL). It also gave an MFC99.5 [10] of 0.07 ×10⁻² umol/ml, an MIC [10] of 0.3 µM (≈ 0.129 µg/mL) and an MFC99.5 [11] of 0.07 ×10⁻² umol/ml. The MIC [11] was 0.45 µM (≈ 0.194 µg/mL), the MFC99.5 [12] was 0.07 ×10⁻² umol/ml and the MIC [12] was 0.3 µM (≈ 0.129 µg/mL). The MFC99.5 [13] was 0.045 ×10⁻² umol/ml, the MIC [13] was 0.3 µM (≈ 0.129 µg/mL) and the MFC99.5 [14] was 0.58 ×10⁻² umol/ml. For the same molecule, the MIC [14] was 2.9 µM (≈ 1.25 µg/mL), the MFC99.5 [15] was 0.58 ×10⁻² umol/ml and the MIC [15] was 2.9 µM (≈ 1.25 µg/mL). For the same molecule, the MFC99.5 [16] was 1.16 ×10⁻² umol/ml, the MIC [16] was 5.8 µM (≈ 2.5 µg/mL) and the Activity [17] was 99.3%.
